Test results from patent publication US6436705B1, “Shape stabilized erythrocytes” (The United States of America as represented by the …, priority 1997, dated 2002).

Experiments:
Red blood cells [1] = experiment: Deformability measurements with an ektacytometer (Shear-scan, Osmo-scan); format: cell-based, human; conditions: 5 mM DTBP for 1 h
Description: Red blood cells were cross-linked with 5 mM DTBP for 1 h. Cross-linking was reversed with 10 mM DTT for 20 min. Deformability measurements were made with fresh untreated, cross-linked, and reversed cells as well as with untreated packed cells stored in CPDA-1 for 6 weeks at 4° C. The effects of cross-linking and reversal on red blood cell deformability were measured with an ektacytometer (Technicon).
The ektacytometer is a laser diffraction viscometer described in detail by Bessiss and Mohandas. Intact red blood cells and ghosts suspended in solution produce a diffuse circular laser diffraction pattern. The instrument takes advantage of the fact that when a shear force is applied to the solution crossing the beam the cells align in the direction of shear and begin deforming into uniformly oriented ellipsoids. The laser diffraction pattern then takes on an ellipsoidal shape oriented 90° from the major elliptical cell axis, with the ratio of the long axis to the short axis length determined by the degree of cell deformation. A signal proportional to mean cellular ellipticity is derived from photometric measurement of this laser diffraction pattern in the two axis directions and is designated the deformability index (DI).
Two types of deformability profiles were generated in the present experiments. […] Shear-scans were run with 40 μl of concentrated cell suspension (80% hematocrit) mixed with 3.0 ml of 3.1% (w/v) polyvinylpyrrolidone (P, av-MW 360 kD) solution containing 138 mM NaCl, 6.34 mM Na2HPO4, 2 mM NaH2PO4, and 0.04% (w/v) NaN3 with pH=7.35±0.05, osmolality=290 mOsmol/kg (by freezing point depression), and viscosity=20 cp (assumed). Osmo-scans were run by continuous addition of this suspension medium containing 100 μl of cells to a PVP solution with a graded salt concentration. Salt gradients were made by addition of high salt PVP solution with 386 mM NaCI (osmolality=750 mOsmol/kg) to a low salt PVP solution with 2.5 mM NaCl (osmolality=40 mOsmol/kg). Conductance measurements of the cell suspension in the viscometer provided an indirect measure of osmolality, which was calculated from a standard calibration curve.
Data was recorded onto a computer, and curves were fitted and plotted using custom routines in Matlab (The Math Works Inc, Natick, Mass.). Shear scans were fitted with a polynomial of degree 6 from which the maximum DI (DImax) was calculated. Osmo-scans were fitted with a running average, and DImax was calculated within the range of 180-240 mOsmol/Kg, along with the osmolality corresponding to 1/2DImax at hypertonic salt concentrations (0′), where DI decreases with increasing intracellular viscosity secondary to cell shrinkage and increased hemoglobin concentration (see Mohandas et al., J. Clin. Invest. 66563-73(1980)). The osmolality corresponding to the minimum DI (Omin) at hypotonic salt concentrations, where DI falls due to cell swelling, was also calculated. The height of the small DI peak thought to be associated with the sudden availability of excess membrane for deformation as intracellular ions and water are lost in the lower range of hypotonic salt (63-125 mOsmol/Kg) concentrations was also recorded (see Clark et al., Blood 61 899-910 (1983)).

Red blood cells [2] = experiment: Metabolic viability: ATP content of red blood cells over time; format: cell-based, human
Description: The metabolic viability of cross-linked cells was assayed by monitoring the production and depletion of ATP over time. DTBP cells were cross-linked in 5 mM DTBP 150 mM glucose for 5 hours at 4° C. The cells were then washed 3 times and incubated in 150 mM glucose for an additional 19 hrs. After washing to remove the glucose the cells were incubated at 4° C. in PBS for 72 hrs before being returned to 150 mM glucose for the final 24 hr incubation. At each time point cells were removed, washed, and spectrophotometrically assayed for ATP as described in the text. The glucose controls were cells treated in the same manor but without crosslinking, and the control cells are cells without exposure to glucose.

COC(=N)CCSSCCC(=N)OC [DTBP, Dimethyl-3,3′-dithiobispropionimidate]
DImax (Red blood cells [1]; Osmo-scan): 0.30 | Omin (osmolality corresponding to the minimum DI) (Red blood cells [1]; Osmo-scan): 125 mOsmol/Kg | O′ (osmolality corresponding to 1/2DImax at hypertonic salt) (Red blood cells [1]; Osmo-scan): 264 mOsmol/Kg | reduction of DImax (Red blood cells [1]; Osmo-scan, FIG. 7): 36% | reduction of red cell deformability as a function of shear stress (Red blood cells [1]; Shear-scan, FIG. 6): over half | ATP Content (Red blood cells [2]; 5 mM DTBP 5 h, 72 hrs in PBS): 51.7 µmol/dL | ATP (Red blood cells [2]; 5 mM DTBP 5 h, after 72 hours in PBS at 4° C.): 51.7 µmol/dL | ATP Content (Red blood cells [2]; 5 mM DTBP 5 h, final 24 hrs in glucose after PBS): 51.5 µmol/dL | ATP Content (Red blood cells [2]; 5 mM DTBP 5 h at 4° C., 24 hrs in glucose (first)): 76.1 µmol/dL
